pIC50: −log10 of the molar value.
Tested on: 677734-321-R-J1-PDC complex spheroid viability
Assay: Anticancer human tumor 677734-321-R-J1-PDC patient-derived soft tissue sarcoma cell line growth inhibition [POLQ]
Settings: for pIC50: curve of first compound; for viability, T/C: stronger effect = lower value; active = viability on the fitted dose curve at most 10% of control; inactive = the rest
In short: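 Complex spheroid viability model combining PDC tumour cells with endothelial (HUVEC) and MSC stromal cells. Novobiocin, ART-558 or RP6685 were tested singly and in combination with standard and investigational anticancer drugs. Each was titrated in half-log steps from near clinical Cmax, or from 10 microM where Cmax was unknown.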

[1] = second compound 0.0316 µM, first compound 0.0316 µM
[2] = second compound 0.0316 µM, first compound 0.1 µM
[3] = second compound 0.0316 µM, first compound 0.316 µM
[4] = second compound 0.0316 µM, first compound 1 µM
[5] = second compound 0.0316 µM, first compound 3.16 µM
[6] = second compound 0.0316 µM, first compound 10 µM
[7] = second compound 0.1 µM, first compound 0.0316 µM
[8] = second compound 0.1 µM, first compound 0.1 µM
[9] = second compound 0.1 µM, first compound 0.316 µM
[10] = second compound 0.1 µM, first compound 1 µM
[11] = second compound 0.1 µM, first compound 3.16 µM
[12] = second compound 0.1 µM, first compound 10 µM
[13] = second compound 0.316 µM, first compound 0.0316 µM
[14] = second compound 0.316 µM, first compound 0.1 µM
[15] = second compound 0.316 µM, first compound 0.316 µM
[16] = second compound 0.316 µM, first compound 1 µM
[17] = second compound 0.316 µM, first compound 3.16 µM
[18] = second compound 0.316 µM, first compound 10 µM
[19] = second compound 1 µM, first compound 0.0316 µM
[20] = second compound 1 µM, first compound 0.1 µM
[21] = second compound 1 µM, first compound 0.316 µM
[22] = second compound 1 µM, first compound 1 µM
[23] = second compound 1 µM, first compound 3.16 µM
[24] = second compound 1 µM, first compound 10 µM
[25] = second compound 3.16 µM, first compound 0.0316 µM
[26] = second compound 3.16 µM, first compound 0.1 µM
[27] = second compound 3.16 µM, first compound 0.316 µM
[28] = second compound 3.16 µM, first compound 1 µM
[29] = second compound 3.16 µM, first compound 3.16 µM
[30] = second compound 3.16 µM, first compound 10 µM
[31] = second compound 10 µM, first compound 0.0316 µM
[32] = second compound 10 µM, first compound 0.1 µM
[33] = second compound 10 µM, first compound 0.316 µM
[34] = second compound 10 µM, first compound 1 µM
[35] = second compound 10 µM, first compound 3.16 µM
[36] = second compound 10 µM, first compound 10 µM
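Note: spheroids exposed to compounds for one week.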
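Throughout, for viability, T/C: 100% = vehicle DMSO treated spheroids.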

CC(=O)O[C@H]1C(=O)[C@@]2(C)[C@H]([C@H](OC(=O)c3ccccc3)[C@]3(O)C[C@H](OC(=O)[C@H](O)[C@@H](NC(=O)c4ccccc4)c4ccccc4)C(C)=C1C3(C)C)[C@]1(OC(C)=O)CO[C@@H]1C[C@@H]2O + COC1C(OC(N)=O)C(O)C(Oc2ccc3c(O)c(NC(=O)c4ccc(O)c(CC=C(C)C)c4)c(=O)oc3c2C)OC1(C)C
> 8.02: pIC50 (second compound 0.0316 µM) | pIC50 (second compound 0.1 µM) | pIC50 (second compound 0.316 µM) | pIC50 (second compound 1 µM) | pIC50 (second compound 3.16 µM) | pIC50 (second compound 10 µM)
inactive: viability, T/C (second compound 0.0316 µM, first compound 0.00949 µM) 44.6% | viability, T/C (second compound 0.0316 µM, first compound 0.03 µM) 22.1% | viability, T/C (second compound 0.0316 µM, first compound 0.0949 µM) 16.2% | viability, T/C (second compound 0.0316 µM, first compound 0.3 µM) 16.4% | viability, T/C (second compound 0.0316 µM, first compound 0.949 µM) 13.5% | viability, T/C (second compound 0.0316 µM, first compound 3 µM) 19.1% | viability, T/C (second compound 0.1 µM, first compound 0.00949 µM) 41.2% | viability, T/C (second compound 0.1 µM, first compound 0.03 µM) 23.5% | viability, T/C (second compound 0.1 µM, first compound 0.0949 µM) 20.2% | viability, T/C (second compound 0.1 µM, first compound 0.3 µM) 14.9% | viability, T/C (second compound 0.1 µM, first compound 0.949 µM) 13.6% | viability, T/C (second compound 0.1 µM, first compound 3 µM) 17.5% | viability, T/C (second compound 0.316 µM, first compound 0.00949 µM) 36.8% | viability, T/C (second compound 0.316 µM, first compound 0.03 µM) 21.3% | viability, T/C (second compound 0.316 µM, first compound 0.0949 µM) 16.8% | viability, T/C (second compound 0.316 µM, first compound 0.3 µM) 11.9% | viability, T/C (second compound 0.316 µM, first compound 0.949 µM) 13.9% | viability, T/C (second compound 0.316 µM, first compound 3 µM) 16.9% | viability, T/C (second compound 1 µM, first compound 0.00949 µM) 37.8% | viability, T/C (second compound 1 µM, first compound 0.03 µM) 22.4% | viability, T/C (second compound 1 µM, first compound 0.0949 µM) 17.8% | viability, T/C (second compound 1 µM, first compound 0.3 µM) 15.2% | viability, T/C (second compound 1 µM, first compound 0.949 µM) 14% | viability, T/C (second compound 1 µM, first compound 3 µM) 18% | viability, T/C (second compound 3.16 µM, first compound 0.00949 µM) 37.8% | viability, T/C (second compound 3.16 µM, first compound 0.03 µM) 21.1% | viability, T/C (second compound 3.16 µM, first compound 0.0949 µM) 16.2% | viability, T/C (second compound 3.16 µM, first compound 0.3 µM) 15.4% | viability, T/C (second compound 3.16 µM, first compound 0.949 µM) 13.5% | viability, T/C (second compound 3.16 µM, first compound 3 µM) 17.7% | viability, T/C (second compound 10 µM, first compound 0.00949 µM) 45.5% | viability, T/C (second compound 10 µM, first compound 0.03 µM) 23.1% | viability, T/C (second compound 10 µM, first compound 0.0949 µM) 16.2% | viability, T/C (second compound 10 µM, first compound 0.3 µM) 13.2% | viability, T/C (second compound 10 µM, first compound 0.949 µM) 14.3% | viability, T/C (second compound 10 µM, first compound 3 µM) 16.5%

COc1cc(C2c3cc4c(cc3C(OC3OC5COC(C)OC5C(O)C3O)C3COC(=O)C23)OCO4)cc(OC)c1O (stereo unspecified) + COC1C(OC(N)=O)C(O)C(Oc2ccc3c(O)c(NC(=O)c4ccc(O)c(CC=C(C)C)c4)c(=O)oc3c2C)OC1(C)C
active: viability, T/C [24] 9.55% | viability, T/C [30] 9%
6.18: pIC50 (second compound 1 µM)
inactive: viability, T/C [1] 107% | viability, T/C [2] 91.5% | viability, T/C [3] 59.5% | viability, T/C [4] 47.8% | viability, T/C [5] 23.8% | viability, T/C [6] 11.1% | viability, T/C [7] 105% | viability, T/C [8] 94.7% | viability, T/C [9] 55% | viability, T/C [10] 47.2% | viability, T/C [11] 30.2% | viability, T/C [12] 10.7% | viability, T/C [13] 100% | viability, T/C [14] 93.8% | viability, T/C [15] 70.8% | viability, T/C [16] 51.3% | viability, T/C [17] 23.9% | viability, T/C [18] 12% | viability, T/C [19] 111% | viability, T/C [20] 87.2% | viability, T/C [21] 60.4% | viability, T/C [22] 45.3% | viability, T/C [23] 24.3% | viability, T/C [25] 111% | viability, T/C [26] 93.6% | viability, T/C [27] 62.6% | viability, T/C [28] 54.9% | viability, T/C [29] 20.4% | viability, T/C [31] 110% | viability, T/C [32] 98.2% | viability, T/C [33] 58.2% | viability, T/C [34] 47.6% | viability, T/C [35] 23.7% | viability, T/C [36] 11%
6.14: pIC50 (second compound 0.1 µM)
6.03: pIC50 (second compound 0.316 µM)
6.07: pIC50 (second compound 3.16 µM)
6.15: pIC50 (second compound 0.0316 µM) | pIC50 (second compound 10 µM)

O=c1[nH]cc(F)c(=O)[nH]1 + COC1C(OC(N)=O)C(O)C(Oc2ccc3c(O)c(NC(=O)c4ccc(O)c(CC=C(C)C)c4)c(=O)oc3c2C)OC1(C)C
5.50: pIC50 (second compound 0.1 µM) | pIC50 (second compound 1 µM)
inactive: viability, T/C [1] 113% | viability, T/C [2] 98.6% | viability, T/C [3] 106% | viability, T/C [4] 94.8% | viability, T/C [5] 44.4% | viability, T/C [6] 40.5% | viability, T/C [7] 111% | viability, T/C [8] 103% | viability, T/C [9] 103% | viability, T/C [10] 91.9% | viability, T/C [11] 49.3% | viability, T/C [12] 43.2% | viability, T/C [13] 107% | viability, T/C [14] 102% | viability, T/C [15] 108% | viability, T/C [16] 98.5% | viability, T/C [17] 46.2% | viability, T/C [18] 37.1% | viability, T/C [19] 117% | viability, T/C [20] 101% | viability, T/C [21] 112% | viability, T/C [22] 91.6% | viability, T/C [23] 50.2% | viability, T/C [24] 41.1% | viability, T/C [25] 106% | viability, T/C [26] 101% | viability, T/C [27] 121% | viability, T/C [28] 83.7% | viability, T/C [29] 63.1% | viability, T/C [30] 42.8% | viability, T/C [31] 105% | viability, T/C [32] 107% | viability, T/C [33] 115% | viability, T/C [34] 89.7% | viability, T/C [35] 47.5% | viability, T/C [36] 43.3%
5.54: pIC50 (second compound 0.316 µM) | pIC50 (second compound 10 µM)
5.56: pIC50 (second compound 0.0316 µM)
5.18: pIC50 (second compound 3.16 µM)
